Reference: US9725445B2, “Cycloalkyl nitrile pyrazolo pyridones as Janus kinase inhibitors” (Merck Sharp & Dohme Corp., priority 2013, dated 2017)

Assays:
JAK2 = JAK2 (Homo sapiens (Human), UniProt O60674); assay: Jak biochemical HTRF assay, JAK2; conditions: HTRF biochemical assay, recombinant GST-tagged catalytic domain; read-out: JAK2 IC50
JAK1 = JAK1 (Homo sapiens (Human), UniProt P23458); assay: Jak biochemical HTRF assay, JAK1; conditions: HTRF biochemical assay, recombinant GST-tagged catalytic domain; read-out: JAK1 IC50
Chain of JAK1 (P23458 875-1153): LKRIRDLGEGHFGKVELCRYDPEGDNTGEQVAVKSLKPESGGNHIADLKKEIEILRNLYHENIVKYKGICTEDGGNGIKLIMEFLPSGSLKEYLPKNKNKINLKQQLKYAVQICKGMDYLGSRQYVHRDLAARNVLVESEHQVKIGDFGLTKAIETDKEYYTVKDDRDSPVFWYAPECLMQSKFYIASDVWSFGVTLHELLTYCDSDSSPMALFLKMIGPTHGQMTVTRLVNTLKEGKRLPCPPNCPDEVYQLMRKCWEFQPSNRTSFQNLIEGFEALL

Chain of JAK2 (O60674 849-1124): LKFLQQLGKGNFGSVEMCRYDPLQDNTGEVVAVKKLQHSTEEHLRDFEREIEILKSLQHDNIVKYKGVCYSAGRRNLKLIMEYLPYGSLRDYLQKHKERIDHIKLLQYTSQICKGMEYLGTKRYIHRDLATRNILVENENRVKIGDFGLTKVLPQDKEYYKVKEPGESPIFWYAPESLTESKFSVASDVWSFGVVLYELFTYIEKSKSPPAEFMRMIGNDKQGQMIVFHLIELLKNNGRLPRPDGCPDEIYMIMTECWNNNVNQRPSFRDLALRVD

Row | IC50 (JAK2) [nM] | IC50 (JAK1) [nM] | SMILES
1 | 0.17 | 0.069 | CC1(N2Cc3cc(Nc4nn([C@H]5CCCC[C@@H]5C#N)c5cc[nH]c(=O)c45)ccc3S2(=O)=O)CCOCC1 [Example 15-64, (1S,2S)-2-(3-{[2-(4-methyltetrahydro-2H-pyran-4-yl)-1,1-dioxido-2,3-dihydro-1,2-benzisothiazol-5-yl]amino}-4-oxo-4,5-dihydro-1H-pyrazolo[4,3-c]pyridin-1-yl)cyclohexanecarbonitrile]
2 | 13 | 0.3 | C[C@H](NC1CCC(n2nc(Nc3ccc(Cl)cc3)c3c(=O)[nH]ccc32)C(C#N)C1)C1CC1 (stereo in doubt) [Example 4-3, (1R,2R,5R)-2-(3-((4-Chlorophenyl)amino)-4-oxo-4,5-dihydro-1H-pyrazolo[4,3-c]pyridin-1-yl)-5-(((S)-1-cyclopropylethyl)amino)cyclohexanecarbonitrile]
3 | 1.1 | 0.32 | N#C[C@H]1CCCC[C@@H]1n1nc(Nc2ccc(C3(O)COC3)cc2)c2c(=O)[nH]ccc21 [Example 15-9, (1S,2S)-2-(3-{[4-(3-hydroxyoxetan-3-yl)phenyl]amino}-4-oxo-4,5-dihydro-1H-pyrazolo[4,3-c]pyridin-1-yl)cyclohexanecarbonitrile]
4 | 0.25 | 0.066 | Cc1cc(Nc2nn([C@H]3CCCC[C@@H]3C#N)c3cc[nH]c(=O)c23)ccc1C(C(C)C)n1ccnn1 (single isomer, unassigned) [Example 15-37, (1S,2S)-2-[3-({3-methyl-4-[(1S or 1R)-2-methyl-1-(1H-1,2,3-triazol-1-yl)propyl]phenyl}amino)-4-oxo-4,5-dihydro-1H-pyrazolo[4,3-c]pyridin-1-yl]cyclohexanecarbonitrile]
5 | 0.89 | 0.91 | CC(C)N1Cc2cc(Nc3nn([C@H]4CCCC[C@@H]4C#N)c4cc[nH]c(=O)c34)ccc2C1C (single isomer, unassigned) [Example 19-1, (1S,2S)-2-(3-(((S or R)-2-isopropyl-1-methylisoindolin-5-yl)amino)-4-oxo-4,5-dihydro-1H-pyrazolo[4,3-c]pyridin-1-yl)cyclohexanecarbonitrile]
6 | 11 | 0.34 | CN(C)[C@H]1CC[C@H](n2nc(Nc3ccc(Cl)cc3)c3c(=O)[nH]ccc32)[C@@H](C#N)C1 [Example 5-16, (1S,2S,5S)-2-(3-((4-chlorophenyl)amino)-4-oxo-4,5-dihydro-1H-pyrazolo[4,3-c]pyridin-1-yl)-5-(dimethylamino)cyclohexanecarbonitrile]
7 | 60 | 1.4 | N#C[C@H]1C[C@H](N2CCC2)CC[C@@H]1n1nc(Nc2ccc(C(F)(F)F)cc2)c2c(=O)[nH]ccc21 [Example 5-7, (1S,2S,5R)-5-(azetidin-1-yl)-2-(4-oxo-3-((4-(trifluoromethyl)phenyl)amino)-4,5-dihydro-1H-pyrazolo[4,3-c]pyridin-1-yl)cyclohexanecarbonitrile]

Second part, the molecule before the results:

Row | SMILES | IC50 (JAK2) [nM] | IC50 (JAK1) [nM]
8 | COC(C)(c1ccc(Nc2nn([C@H]3CCCC[C@@H]3C#N)c3cc[nH]c(=O)c23)cc1)C(F)(F)F (single isomer, unassigned) [Example 3-125, (1S,2S)-2-(4-oxo-3-((4-((R or S)-1,1,1-trifluoro-2-methoxypropan-2-yl)phenyl)amino)-4,5-dihydro-1H-pyrazolo[4,3-c]pyridin-1-yl)cyclohexanecarbonitrile] | 0.86 | 0.32
9 | N#C[C@@H]1CCCC[C@H]1n1nc(Nc2cccc(CNC(=O)c3ncccn3)c2)c2c(=O)[nH]ccc21 [Example 3-14, N-[3-({1-[(1R,2R)-2-cyanocyclohexyl]-4-oxo-4,5-dihydro-1H-pyrazolo[4,3-c]pyridin-3-yl}amino)benzyl]pyrimidine-2-carboxamide] | 68 | 38
10 | N#C[C@@H]1CCCC[C@H]1n1nc(Nc2ccc(CS(=O)(=O)N3CCCC3)cc2)c2c(=O)[nH]ccc21 [Example 3-3, (1R,2R)-2-(4-oxo-3-((4-((pyrrolidin-1-ylsulfonyl)methyl)phenyl)amino)-4,5-dihydro-1H-pyrazolo[4,3-c]pyridin-1-yl)cyclohexanecarbonitrile] | 21 | 6.1
11 | COCCNS(=O)(=O)c1ccc(Nc2nn([C@H]3CCCC[C@@H]3C#N)c3cc[nH]c(=O)c23)cc1 [Example 3-21, 4-({1-[(1S,2S)-2-cyanocyclohexyl]-4-oxo-4,5-dihydro-1H-pyrazolo[4,3-c]pyridin-3-yl}amino)-N-(2-methoxyethyl)benzenesulfon-amide] | 0.79 | 0.17
12 | CN1Cc2ccc(Nc3nn([C@H]4CCCC[C@@H]4C#N)c4cc[nH]c(=O)c34)cc2C1 [Example 3-64, (1S,2S)-2-{3-[(2-methyl-2,3-dihydro-1H-isoindol-5-yl)amino]-4-oxo-4,5-dihydro-1H-pyrazolo[4,3-c]pyridin-1-yl}cyclohexanecarbonitrile] | 1.6 | 0.39
13 | CC1c2cc(Nc3nn([C@H]4CCCC[C@@H]4C#N)c4cc[nH]c(=O)c34)ccc2S(=O)(=O)N1C (single isomer, unassigned) [Example 3-127, (1S,2S)-2-(3-(((R or S)-2,3-dimethyl-1,1-dioxido-2,3-dihydrobenzo[d]isothiazol-5-yl)amino)-4-oxo-4,5-dihydro-1H-pyrazolo[4,3-c]pyridin-1-yl)cyclohexanecarbonitrile] | 2.6 | 0.33
14 | CC(C)(C)OC(=O)NCc1cc(Nc2nn([C@H]3CCCC[C@@H]3C#N)c3cc[nH]c(=O)c23)ccc1F [Example 3-35, tert-butyl [5-({1-[(1S,2S)-2-cyanocyclohexyl]-4-oxo-4,5-dihydro-1H-pyrazolo[4,3-c]pyridin-3-yl}amino)-2-fluorobenzyl]carbamate] | 4.7 | 3.2
15 | CC(C)NS(=O)(=O)c1ccc(Nc2nn([C@H]3CCCC[C@@H]3C#N)c3cc[nH]c(=O)c23)cc1 [Example 3-18, 4-({1-[(1S,2S)-2-cyanocyclohexyl]-4-oxo-4,5-dihydro-1H-pyrazolo[4,3-c]pyridin-3-yl}amino)-N-(1-methylethyl)benzenesulfonamide] | 0.37 | 0.12
16 | N#C[C@H]1CCCC[C@@H]1n1nc(Nc2ccc(CNCC(F)(F)F)cc2)c2c(=O)[nH]ccc21 [Example 3-57, (1S,2S)-2-{4-oxo-3-[(4-{[(2,2,2-trifluoroethyl)amino]methyl}phenyl)amino]-4,5-dihydro-1H-pyrazolo[4,3-c]pyridin-1-yl}cyclohexanecarbonitrile] | 0.53 | 0.2
17 | CC(C)(C)OC(=O)CN1Cc2cc(Nc3nn([C@H]4CCCC[C@@H]4C#N)c4cc[nH]c(=O)c34)ccc2S1(=O)=O [Example 3-151, tert-butyl [5-({1-[(1S,2S)-2-cyanocyclohexyl]-4-oxo-4,5-dihydro-1H-pyrazolo[4,3-c]pyridin-3-yl}amino)-1,1-dioxido-1,2-benzisothiazol-2(3H)-yl]acetate] | 0.52 | 0.041
18 | CC(C)(C)NS(=O)(=O)c1ccc(Nc2nn([C@H]3CCC[C@@H]3C#N)c3cc[nH]c(=O)c23)cc1 [Example 3-107, N-tert-butyl-4-({1-[(1S,2S)-2-cyanocyclopentyl]-4-oxo-4,5-dihydro-1H-pyrazolo[4,3-c]pyridin-3-yl}amino)benzenesulfonamide] | 0.48 | 0.22
19 | Cc1cc(Nc2nn([C@H]3CCCC[C@@H]3C#N)c3cc[nH]c(=O)c23)ccc1C(=O)N(C)C [Example 3-67, 4-({1-[(1S,2S)-2-cyanocyclohexyl]-4-oxo-4,5-dihydro-1H-pyrazolo[4,3-c]pyridin-3-yl}amino)-N,N,2-trimethylbenzamide] | 0.43 | 0.34
20 | COCCC(C)(C)N1Cc2cc(Nc3nn([C@H]4CCCC[C@@H]4C#N)c4cc[nH]c(=O)c34)ccc2S1(=O)=O [Example 3-161, (1S,2S)-2-(3-{[2-(3-methoxy-1,1-dimethylpropyl)-1,1-dioxido-2,3-dihydro-1,2-benzisothiazol-5-yl]amino}-4-oxo-4,5-dihydro-1H-pyrazolo[4,3-c]pyridin-1-yl)cyclohexanecarbonitrile] | 0.15 | 0.067
21 | CC(C)N1Cc2ccc(Nc3nn([C@H]4CCCC[C@@H]4C#N)c4cc[nH]c(=O)c34)cc2C1 [Example 3-74, (1S,2S)-2-(3-{[2-(1-methylethyl)-2,3-dihydro-1H-isoindol-5-yl]amino}-4-oxo-4,5-dihydro-1H-pyrazolo[4,3-c]pyridin-1-yl)cyclohexanecarbonitrile] | 0.29 | 0.14
22 | CC(O)c1cccc(Nc2nn([C@H]3CCCC[C@@H]3C#N)c3cc[nH]c(=O)c23)c1 (stereo partly drawn) [Example 3-31, (1S,2S)-2-(3-{[3-(1-hydroxyethyl)phenyl]amino}-4-oxo-4,5-dihydro-1H-pyrazolo[4,3-c]pyridin-1-yl)cyclohexanecarbonitrile] | 1.7 | 0.46
23 | N#C[C@H]1CCCC[C@@H]1n1nc(Nc2cccc(Cn3cncn3)c2)c2c(=O)[nH]ccc21 [Example 3-50, (1S,2S)-2-(4-oxo-3-{[3-(1H-1,2,4-triazol-1-ylmethyl)phenyl]amino}-4,5-dihydro-1H-pyrazolo[4,3-c]pyridin-1-yl)cyclohexanecarbonitrile] | 1.3 | 0.5
24 | N#C[C@H]1CCCC[C@@H]1n1nc(Nc2ccc3c(c2)CNS3(=O)=O)c2c(=O)[nH]ccc21 [Example 3-54, (1S,2S)-2-{3-[(1,1-dioxido-2,3-dihydro-1,2-benzisothiazol-5-yl)amino]-4-oxo-4,5-dihydro-1H-pyrazolo[4,3-c]pyridin-1-yl}cyclohexanecarbonitrile] | 0.62 | 0.051
25 | N#C[C@H]1CCCC[C@@H]1n1nc(Nc2ccc(CNC(=O)c3cnco3)cc2)c2c(=O)[nH]ccc21 [Example 3-29, N-[4-({1-[(1S,2S)-2-cyanocyclohexyl]-4-oxo-4,5-dihydro-1H-pyrazolo[4,3-c]pyridin-3-yl}amino)benzyl]-1,3-oxazole-5-carboxamide] | 1.5 | 0.32
